Data: US9133525B2, “Detection of DNA sequences as risk factors for HIV infection” (priority 2012, dated 2015)

System: antibiotic sensitive microorganism associated with red blood cells
Assay: PCR amplification of DNA from red blood cells of HIV-positive patients with MSP2 Primer Pairs 1 and 2, before and after long-term antibiotic treatment
Format: in vivo, human (HIV-positive patients)
Procedure: Standard procedures for separating RBCs from buffy coat and other peripheral blood components are known. Peripheral blood was processed on a Ficoll gradient to separate the buffy coat from red blood cells. […] This lysate was prepared by repeated freeze-thawing of red blood cells isolated from the buffy coat, strong shaking by vortex, and a low speed centrifugation (1,500 g×10 mins). A pellet and supernatant fraction were obtained and tested. The primers described above only amplified DNA in the supernatant fraction, but not in the pellet.
Five HIV-positive patients were maintained on their antiretroviral therapy, but received for at least three months a daily antibiotic treatment (azithromycin 250 mg/day or doxycycline 100 mg/day). Blood samples were fractionated to recover a red blood cell fraction on day 0 and after 3 months of antibiotic.
Blood samples were obtained from African and European Patients who were HIV-negative or HIV-positive. Red blood cells were isolated from buffy coat and other blood components by separation on a Ficoll gradient as described above. […] Similar results were obtained using the primers described in Appendix 3. […] However, amplified DNA was detected in this patient using the Primer Pairs 1 and 2 shown in Appendix 2, but the amplified DNA bands were weaker than those for chronically-infected HIV-positive patients. […]

## CC[C@H]1OC(=O)[C@H](C)[C@@H](O[C@H]2C[C@@](C)(OC)[C@@H](O)[C@H](C)O2)[C@H](C)[C@@H](O[C@@H]2O[C@H](C)C[C@H](N(C)C)[C@H]2O)[C@](C)(O)C[C@@H](C)CN(C)[C@H](C)[C@@H](O)[C@]1(C)O [azithromycin]
HIV-positive patients, long term antibiotic treatment for more than three months, Primer Pairs 1 and 2
  intensity of the bands amplified using these primers: decrease
Five HIV-positive patients on antiretroviral therapy, daily azithromycin 250 mg/day or doxycycline 100 mg/day for at least three months, red blood cell fraction
  amount of DNA amplified after 3 months of antibiotic treatment vs day 0: significantly less
